Experimental findings from patent US20260042755A1, “GPR6 INVERSE AGONISTS” (MapLight Therapeutics, Inc., priority 2022, published 2026) are described below.

The target of one experiment is T1, GPR6 (Homo sapiens, UniProt P46095).
T1 construct: expressed in transfected cells; host or cells: CHO cells
As to the kind of experiment: GPR6 antagonist functional cAMP assay (LANCE Ultra cAMP TR-FRET, CHO cells stably expressing GPR6). The experiment is classed as cell-based. A digest of the protocol: (§1)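 Suspended cells were plated at 10,000 per well in Krebs-Ringer bicarbonate buffer containing 0.1% BSA and 150 μM Ro 20-1724, then treated with compounds for 45 min at 37 °C. Intracellular cAMP was then quantified by TR-FRET immunoassay.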
For orientation: Changes in cAMP serve as a functional read-out for many G protein-coupled receptors.

A further experiment deals with T2, GPR3 (Homo sapiens, UniProt P46089).
T2 construct: expressed in transfected cells; host or cells: CHO cells
In words: GPR3 antagonist functional cAMP assay (LANCE Ultra cAMP TR-FRET, CHO cells stably expressing GPR3). The experiment is classed as cell-based. A digest of the protocol:
as §1

[1] abbreviates: CHO cells stably expressing GPR6, cAMP assay (Example 24).
Setting [2] is: CHO cells stably expressing GPR3, cAMP assay (Example 24).
The mark [3] stands for this setting: procedure as described in Example 24.
The mark [4] stands for this setting: CHO cells stably expressing GPR6, cAMP assay.
The mark [5] stands for this setting: CHO cells stably expressing GPR3, cAMP assay.

Usually IC50 stands for the concentration needed to halve the response being measured. Lower therefore signals greater potency.

T2 sequence (P46089 whole entry, species assumed): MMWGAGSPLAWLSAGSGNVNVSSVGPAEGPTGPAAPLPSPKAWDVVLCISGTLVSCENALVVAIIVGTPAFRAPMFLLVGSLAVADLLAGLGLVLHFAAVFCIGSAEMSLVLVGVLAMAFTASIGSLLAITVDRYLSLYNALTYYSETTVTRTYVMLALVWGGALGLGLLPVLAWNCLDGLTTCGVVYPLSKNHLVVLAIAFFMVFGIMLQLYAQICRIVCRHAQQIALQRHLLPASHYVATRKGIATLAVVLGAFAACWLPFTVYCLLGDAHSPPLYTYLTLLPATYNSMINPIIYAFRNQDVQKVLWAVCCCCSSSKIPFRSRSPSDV
T1 sequence (P46095 whole entry): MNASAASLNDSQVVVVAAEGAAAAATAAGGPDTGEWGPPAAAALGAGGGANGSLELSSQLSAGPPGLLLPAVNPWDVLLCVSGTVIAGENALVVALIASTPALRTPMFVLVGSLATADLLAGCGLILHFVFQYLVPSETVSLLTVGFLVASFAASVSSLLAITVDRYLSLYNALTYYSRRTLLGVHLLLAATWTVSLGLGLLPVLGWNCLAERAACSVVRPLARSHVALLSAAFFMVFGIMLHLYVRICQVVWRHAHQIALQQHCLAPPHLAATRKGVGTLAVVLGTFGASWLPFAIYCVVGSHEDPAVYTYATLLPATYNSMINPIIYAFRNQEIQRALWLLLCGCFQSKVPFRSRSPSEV

Take `COC(C)(C)C(=O)N1CCc2nc(N3CCC(Oc4ccc(F)cc4F)CC3)c(-c3cnn(C4CCCCO4)c3)nc2C1` (centres unmarked) [Compound 173, 1-{2-[4-(2,4-difluorophenoxy)piperidin-1-yl]-3-[1-(oxan-2-yl)-1H-pyrazol-4-yl]-5H,6H,7H,8H-pyrido[3,4-b]pyrazin-6-yl}-2-methoxy-2-methylpropan-1-one]: the IC50 against GPR6 (setting [1]) and on GPR3 (setting [2]) was 1000 to 30000 nM throughout.

As to `COc1cccc(-c2nc3c(nc2N2CCC(Oc4ccc(F)cc4F)CC2)CCN(C(C)=O)C3)n1` [Compound 86, 1-(2-(4-(2,4-difluorophenoxy)piperidin-1-yl)-3-(6-methoxypyridin-2-yl)-7,8-dihydropyrido[3,4-b]pyrazin-6(5H)-yl)ethan-1-one], the values for the IC50 against GPR6 (setting [1]) and against GPR3 (setting [2]) were 100 to 1000 nM and 1000 to 30000 nM, respectively.

As to `CC(=O)N1CCc2nc(N3CCC(Oc4ccc(F)cc4F)CC3)c(-c3cnn(CCF)c3)nc2C1` [Compound 16, 1-{2-[4-(2,4-difluorophenoxy)piperidin-1-yl]-3-[1-(2-fluoroethyl)-1H-pyrazol-4-yl]-5H,6H,7H,8H-pyrido[3,4-b]pyrazin-6-yl}ethan-1-one], the IC50 against GPR6 (setting [3]) lay within 100 to 1000 nM; at GPR3 (setting [3]), 1000 to 30000 nM.

For `CC(=O)N1CCc2nc(N3CCN(Cc4cccnc4)CC3)c(-c3cnn(C)c3)nc2C1` [Compound 517, 1-[3-(1-methyl-4-pyrazolyl)-2-{4-[(3-pyridyl)methyl]-1-piperazinyl}-5,6,7,8-tetrahydro-1,4,6-triaza-6-naphthyl]-1-ethanone], the IC50 against GPR6 (setting [4]) and against GPR3 (setting [5]) was at least 30000 nM each time.

As to `COc1cc(-c2nc3c(nc2N2CCC(Oc4ccc(F)cc4F)CC2)CCN(C(C)=O)C3)cnn1` [Compound 235, 1-{2-[4-(2,4-difluorophenoxy)piperidin-1-yl]-3-(6-methoxypyridazin-4-yl)-5H,6H,7H,8H-pyrido[3,4-b]pyrazin-6-yl}ethan-1-one], the IC50 at GPR6 (setting [1]) and at GPR3 (setting [2]) was 1000 to 30000 nM throughout.

Take `COC[C@@H](O)c1cc2nc(-c3cnn(C)c3)c(N3CCC(Oc4ccc(F)cc4F)CC3)nc2cn1` (single isomer, unassigned) [Compound 680]: the IC50 against GPR6 (procedure of Example 24) is below 100 nM; against GPR3 (procedure of Example 24), 100 to 1000 nM.

Consider `Cn1cc(-c2nc3cc(C(C)(O)CO)ncc3nc2N2CCC(Oc3ccc(F)cc3F)CC2)cn1` (centres unmarked) [Compound 645, 2-{3-[4-(2,4-difluorophenoxy)-1-piperidyl]-2-(1-methyl-4-pyrazolyl)-1,4,6-triaza-7-naphthyl}-1,2-propanediol], for which the IC50 against GPR6 (procedure of Example 24) lay within 100 to 1000 nM; against GPR3 (procedure of Example 24) it was 1000 to 30000 nM.

As to `Cc1nccc2nc(N3CCC(Oc4ccc(F)cc4F)CC3)c(-c3cnn(C)c3)nc12` [Compound 487, 4-(2,4-difluorophenoxy)-1-[5-methyl-3-(1-methyl-1H-pyrazol-4-yl)pyrido[3,4-b]pyrazin-2-yl]piperidine], the IC50 was below 100 nM against GPR6 (setting [1]) and 1000 to 30000 nM against GPR3 (setting [2]).

Turning to `COc1ccc(-c2nc3c(nc2N2CCC(Oc4ccc(F)cc4F)CC2)CCN(C(C)=O)C3)nn1` [Compound 189, 1-{2-[4-(2,4-difluorophenoxy)piperidin-1-yl]-3-(6-methoxypyridazin-3-yl)-5H,6H,7H,8H-pyrido[3,4-b]pyrazin-6-yl}ethan-1-one], the IC50 at GPR6 (setting [1]) is 100 to 1000 nM; on GPR3 (setting [2]), 1000 to 30000 nM.

For `Cn1cc(-c2nc3cnc([C@@H](O)C(C)(C)O)cc3nc2N2CCN(Cc3ccc(F)cc3F)CC2)cn1` (single isomer, unassigned) [Compound 261], the figures for the IC50 against GPR6 (setting [1]) and at GPR3 (setting [2]) were 100 to 1000 nM and 1000 to 30000 nM, respectively.

On to `CC(C)(O)C(C)(O)c1cc2nc(-c3cnn(CF)c3)c(N3CCC(Oc4ccc(F)cc4F)CC3)nc2cn1` (single isomer, unassigned) [Compound 782], for which the IC50 was 100 to 1000 nM against GPR6 (procedure of Example 24) and 1000 to 30000 nM against GPR3 (procedure of Example 24).

Regarding `CC(C)OC(=O)N1CCc2nc(N3CCC(Oc4ccc(F)cc4F)CC3)c(-c3cnn(C4CCCCO4)c3)nc2C1` (centres unmarked) [Compound 156, propan-2-yl 2-[4-(2,4-difluorophenoxy)piperidin-1-yl]-3-[1-(oxan-2-yl)-1H-pyrazol-4-yl]-5H,6H,7H,8H-pyrido[3,4-b]pyrazine-6-carboxylate], the concentration for half-maximal inhibition (IC50) against GPR6 (setting [1]) and on GPR3 (setting [2]) was 1000 to 30000 nM throughout.

In the case of `CC(=O)N1CCc2nc(N3CCC(Oc4ccc(F)cc4F)CC3)c(-c3cccc(CO)n3)nc2C1` [Compound 133, 1-(2-(4-(2,4-difluorophenoxy)piperidin-1-yl)-3-(6-(hydroxymethyl)pyridin-2-yl)-7,8-dihydropyrido[3,4-b]pyrazin-6(5H)-yl)ethan-1-one], the IC50 against GPR6 (setting [1]) and at GPR3 (setting [2]) was 1000 to 30000 nM throughout.

`COc1ccc(CN2CCN(c3nc4c(nc3-c3cnn(C)c3)CN(C(C)=O)CC4)CC2)c(F)c1` [Compound 316, 1-(2-{4-[(2-fluoro-4-methoxyphenyl)methyl]piperazin-1-yl}-3-(1-methyl-1H-pyrazol-4-yl)-5H,6H,7H,8H-pyrido[3,4-b]pyrazin-6-yl)ethan-1-one]: the IC50 against GPR6 (procedure of Example 24) is 100 to 1000 nM; at GPR3 (procedure of Example 24) it was 1000 to 30000 nM.

Take `CC(C)(O)[C@](C)(O)c1cc2nc(N3CCC(Oc4ccc(F)cc4F)CC3)c(-c3cnn(C(F)F)c3)nc2cn1` (single isomer, unassigned) [Compound 655]: the IC50 lay within 100 to 1000 nM on GPR6 (procedure of Example 24) and 1000 to 30000 nM on GPR3 (procedure of Example 24).

As for `Fc1ccc(OC2CC3(C2)CN(c2nc4ccncc4nc2-c2cn[nH]c2)C3)c(F)c1` [Compound 26, 2-(6-(2,4-difluorophenoxy)-2-azaspiro[3.3]heptan-2-yl)-3-(1H-pyrazol-4-yl)pyrido[3,4-b]pyrazine], the IC50 lay within 1000 to 30000 nM at GPR6 (setting [3]) and 100 to 1000 nM against GPR3 (setting [3]).

As for `Cn1cc(-c2nc3ccc(C(O)C(C)(C)O)nc3nc2N2CCN(Cc3ccc(F)cc3F)CC2)cn1` (centres unmarked) [Compound 569, 1-(3-{4-[(2,4-difluorophenyl)methyl]-1-piperazinyl}-2-(1-methyl-4-pyrazolyl)-1,4,5-triaza-6-naphthyl)-2-methyl-1,2-propanediol], the IC50 is 1000 to 30000 nM at GPR6 (setting [4]) and at least 30000 nM against GPR3 (setting [5]).

With `CC(=O)N1CCc2nc(N3CCC(Oc4ccc(F)cc4F)CC3)c(-c3cnn(CCC#N)c3)nc2C1` [Compound 73, 3-(4-{6-acetyl-2-[4-(2,4-difluorophenoxy)piperidin-1-yl]-5H,6H,7H,8H-pyrido[3,4-b]pyrazin-3-yl}-1H-pyrazol-1-yl)propanenitrile], the IC50 at GPR6 (setting [1]) was 100 to 1000 nM; against GPR3 (setting [2]) it was 1000 to 30000 nM.

Consider `CC(=O)N1CCc2nc(N3CCN(Cc4cc(F)cc(F)c4)CC3)c(-c3cnn(C)c3)nc2C1` [Compound 353, 1-(2-{4-[(3,5-difluorophenyl)methyl]piperazin-1-yl}-3-(1-methyl-1H-pyrazol-4-yl)-5H,6H,7H,8H-pyrido[3,4-b]pyrazin-6-yl)ethan-1-one], for which the IC50 against GPR6 (procedure of Example 24) and at GPR3 (procedure of Example 24) was 1000 to 30000 nM in each case.

For `CCn1cc(-c2nc3c(nc2N2CCC(Oc4ccc(F)cc4F)CC2)CCN(S(C)(=O)=O)C3)cn1` [Compound 269, 4-(2,4-difluorophenoxy)-1-[3-(1-ethyl-1H-pyrazol-4-yl)-6-methanesulfonyl-5H,6H,7H,8H-pyrido[3,4-b]pyrazin-2-yl]piperidine], the IC50 against GPR6 (procedure of Example 24) is below 100 nM; against GPR3 (procedure of Example 24), 1000 to 30000 nM.

`CCn1ccc(-c2nc3c(nc2N2CCC(Oc4ccc(F)cc4F)CC2)CCN(C(C)=O)C3)n1` [Compound 448, 1-{2-[4-(2,4-difluorophenoxy)piperidin-1-yl]-3-(1-ethyl-1H-pyrazol-3-yl)-5H,6H,7H,8H-pyrido[3,4-b]pyrazin-6-yl}ethan-1-one]: the values for the IC50 against GPR6 (setting [1]) and at GPR3 (setting [2]) were 100 to 1000 nM and 1000 to 30000 nM, respectively.

Turning to `Cn1cc(-c2nc3cnc(CC(C)(C)O)cc3nc2N2CCC(Oc3ccc(F)cc3F)CC2)cn1` [Compound 461, 1-(2-(4-(2,4-difluorophenoxy)piperidin-1-yl)-3-(1-methyl-1H-pyrazol-4-yl)pyrido[3,4-b]pyrazin-7-yl)-2-methylpropan-2-ol], the IC50 on GPR6 (setting [1]) is 100 to 1000 nM; against GPR3 (setting [2]), 1000 to 30000 nM.

With `CC(C)(O)[C@H](O)c1cc2nc(N3CCN(Cc4ccccc4F)CC3)c(-c3cnn(C4CC4)c3)nc2cn1` (single isomer, unassigned) [Compound 732], the IC50 on GPR6 (procedure of Example 24) is 100 to 1000 nM; at GPR3 (procedure of Example 24) it was 1000 to 30000 nM.

In the case of `CC(=O)N1CCc2nc(N3CCC(COc4ccccc4F)C3)c(-c3cnn(C)c3)nc2C1` (centres unmarked) [Compound 323, 1-(2-{3-[(2-fluorophenoxy)methyl]pyrrolidin-1-yl}-3-(1-methyl-1H-pyrazol-4-yl)-5H,6H,7H,8H-pyrido[3,4-b]pyrazin-6-yl)ethan-1-one], the IC50 at GPR6 (procedure of Example 24) and on GPR3 (procedure of Example 24) was 1000 to 30000 nM in each case.

Regarding `CNC(=O)C(C)N1CCc2nc(N3CCC(Oc4ccc(F)cc4F)CC3)c(-c3cn[nH]c3)nc2C1` (centres unmarked) [Compound 147, 2-{2-[4-(2,4-difluorophenoxy)piperidin-1-yl]-3-(1H-pyrazol-4-yl)-5H,6H,7H,8H-pyrido[3,4-b]pyrazin-6-yl}-N-methylpropanamide], the concentration for half-maximal inhibition (IC50) on GPR6 (setting [1]) and against GPR3 (setting [2]) was 1000 to 30000 nM in each case.

As for `Cn1cc(-c2nc3cnc([C@@H](O)C(C)(C)O)cc3nc2N2CCC(=Cc3ccc(F)cc3F)CC2)cn1` (single isomer, unassigned) [Compound 719], the IC50 at GPR6 (procedure of Example 24) is below 100 nM; at GPR3 (procedure of Example 24), 1000 to 30000 nM.

As to `CC(C)(O)C(C)(O)c1cc2nc(-c3cnn(C(F)F)c3)c(N3CCN(Cc4ccccc4F)CC3)nc2cn1` (single isomer, unassigned) [Compound 709], the IC50 against GPR6 (procedure of Example 24) lay within 100 to 1000 nM; against GPR3 (procedure of Example 24) it was 1000 to 30000 nM.

As for `CC(=O)N1CCc2nc(-c3cn[nH]c3)c(N3CCC(Oc4ccc(F)cc4F)CC3)nc2C1` [Compound 115, 1-{3-[4-(2,4-difluorophenoxy)piperidin-1-yl]-2-(1H-pyrazol-4-yl)-5H,6H,7H,8H-pyrido[3,4-b]pyrazin-6-yl}ethan-1-one], the IC50 at GPR6 (setting [1]) is 100 to 1000 nM; against GPR3 (setting [2]), 1000 to 30000 nM.
